What was measured:
[1] = biological target: ABL1 (Q252H)-phosphorylated (Homo sapiens, UniProt P00519, Q252H); experiment: Kinase profiling; assay type: binding; conditions: read-out: % Ctrl @ 1000 nM
WNK3 = WNK3 (Homo sapiens, UniProt Q9BYP7); experiment: Kinase profiling; assay type: binding; conditions: read-out: % Ctrl @ 1000 nM
CDK7 = CDK7 (Homo sapiens, UniProt P50613); experiment: Kinase profiling; assay type: binding; conditions: read-out: % Ctrl @ 1000 nM
[2] = biological target: ABL1 (Y253F)-phosphorylated (Homo sapiens, UniProt P00519, Y253F); experiment: Kinase profiling; assay type: binding; conditions: read-out: % Ctrl @ 1000 nM
[3] = biological target: RSK3 (Kin.Dom.1-N-terminal) (Homo sapiens, UniProt Q15349); experiment: Kinase profiling; assay type: binding; conditions: read-out: % Ctrl @ 1000 nM
[4] = biological target: ABL1 (T315I)-nonphosphorylated (Homo sapiens, UniProt P00519, T315I); experiment: Kinase profiling; assay type: binding; conditions: read-out: % Ctrl @ 1000 nM
ZAK = ZAK (Homo sapiens, UniProt Q9NYL2); experiment: Kinase profiling; assay type: binding; conditions: read-out: % Ctrl @ 1000 nM
PYK2 = PYK2 (Homo sapiens, UniProt Q14289); experiment: Kinase profiling; assay type: binding; conditions: read-out: % Ctrl @ 1000 nM
LOK = LOK (Homo sapiens, UniProt O94804); experiment: Kinase profiling; assay type: binding; conditions: read-out: % Ctrl @ 1000 nM
RIPK4 = RIPK4 (Homo sapiens, UniProt P57078); experiment: Kinase profiling; assay type: binding; conditions: read-out: % Ctrl @ 1000 nM
CDK5 = CDK5 (Homo sapiens, UniProt Q00535); experiment: Kinase profiling; assay type: binding; conditions: read-out: % Ctrl @ 1000 nM
CDK4 = CDK4 (Homo sapiens, UniProt P11802); experiment: Kinase profiling; assay type: binding; conditions: read-out: % Ctrl @ 1000 nM
Chain of CDK4 (P11802 whole entry): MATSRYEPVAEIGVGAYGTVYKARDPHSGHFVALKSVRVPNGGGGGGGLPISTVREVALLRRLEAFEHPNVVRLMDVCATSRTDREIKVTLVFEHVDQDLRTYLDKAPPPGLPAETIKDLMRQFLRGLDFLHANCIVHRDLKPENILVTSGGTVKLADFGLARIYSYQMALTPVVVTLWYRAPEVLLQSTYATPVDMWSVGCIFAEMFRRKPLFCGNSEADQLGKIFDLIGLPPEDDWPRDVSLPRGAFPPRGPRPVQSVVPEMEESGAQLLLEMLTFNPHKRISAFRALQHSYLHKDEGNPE

YANK1 = YANK1 (Homo sapiens, UniProt Q8WU08); experiment: Kinase profiling; assay type: binding; conditions: read-out: % Ctrl @ 1000 nM
Chain of YANK1 (Q8WU08 whole entry): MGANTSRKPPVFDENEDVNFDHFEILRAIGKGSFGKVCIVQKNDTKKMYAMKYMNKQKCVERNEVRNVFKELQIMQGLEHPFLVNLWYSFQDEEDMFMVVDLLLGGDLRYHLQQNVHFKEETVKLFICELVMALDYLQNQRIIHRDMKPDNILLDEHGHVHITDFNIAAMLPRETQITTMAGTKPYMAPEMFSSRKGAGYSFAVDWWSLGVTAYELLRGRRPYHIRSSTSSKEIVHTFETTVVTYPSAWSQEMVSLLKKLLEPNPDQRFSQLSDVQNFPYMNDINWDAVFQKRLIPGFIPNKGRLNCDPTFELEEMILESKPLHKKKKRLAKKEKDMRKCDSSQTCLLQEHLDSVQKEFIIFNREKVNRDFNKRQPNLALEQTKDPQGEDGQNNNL

EGFR = EGFR (Homo sapiens, UniProt P00533); experiment: Kinase profiling; assay type: binding; conditions: read-out: % Ctrl @ 1000 nM
SGK = SGK (Homo sapiens, UniProt O00141); experiment: Kinase profiling; assay type: binding; conditions: read-out: % Ctrl @ 1000 nM
PFTAIRE2 = PFTAIRE2 (Homo sapiens, UniProt Q96Q40); experiment: Kinase profiling; assay type: binding; conditions: read-out: % Ctrl @ 1000 nM
FES = FES (Homo sapiens, UniProt P07332); experiment: Kinase profiling; assay type: binding; conditions: read-out: % Ctrl @ 1000 nM
Chain of FES (P07332 whole entry): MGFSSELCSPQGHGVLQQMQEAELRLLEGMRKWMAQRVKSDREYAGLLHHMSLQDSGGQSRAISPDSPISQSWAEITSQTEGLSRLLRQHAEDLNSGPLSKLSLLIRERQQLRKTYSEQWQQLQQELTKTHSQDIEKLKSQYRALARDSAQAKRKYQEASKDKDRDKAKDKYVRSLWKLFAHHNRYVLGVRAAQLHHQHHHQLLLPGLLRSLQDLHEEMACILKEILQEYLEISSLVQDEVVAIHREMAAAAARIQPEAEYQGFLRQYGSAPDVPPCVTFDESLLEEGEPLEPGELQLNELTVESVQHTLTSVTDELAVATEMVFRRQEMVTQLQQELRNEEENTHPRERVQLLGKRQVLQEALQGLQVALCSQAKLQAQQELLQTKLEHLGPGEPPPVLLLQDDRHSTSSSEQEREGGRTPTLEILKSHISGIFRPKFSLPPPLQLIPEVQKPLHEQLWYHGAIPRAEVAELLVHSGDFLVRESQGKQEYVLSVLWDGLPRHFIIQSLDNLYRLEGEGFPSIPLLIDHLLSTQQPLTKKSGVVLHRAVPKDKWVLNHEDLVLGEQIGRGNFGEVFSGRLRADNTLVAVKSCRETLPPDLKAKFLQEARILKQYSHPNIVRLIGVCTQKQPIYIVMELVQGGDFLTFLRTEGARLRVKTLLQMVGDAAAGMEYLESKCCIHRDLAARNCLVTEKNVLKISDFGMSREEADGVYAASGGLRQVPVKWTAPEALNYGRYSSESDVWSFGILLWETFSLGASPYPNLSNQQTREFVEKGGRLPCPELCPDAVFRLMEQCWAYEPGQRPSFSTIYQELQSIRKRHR

CDC2L2 = CDC2L2 (Homo sapiens, UniProt Q9UQ88); experiment: Kinase profiling; assay type: binding; conditions: read-out: % Ctrl @ 1000 nM
CSNK1A1L = CSNK1A1L (Homo sapiens, UniProt Q8N752); experiment: Kinase profiling; assay type: binding; conditions: read-out: % Ctrl @ 1000 nM
FLT3 (R834Q) = FLT3 (R834Q) (Homo sapiens, UniProt P36888, R834Q); experiment: Kinase profiling; assay type: binding; conditions: read-out: % Ctrl @ 1000 nM
PIK3CG = PIK3CG (Homo sapiens, UniProt P48736); experiment: Kinase profiling; assay type: binding; conditions: read-out: % Ctrl @ 1000 nM
CHEK2 = CHEK2 (Homo sapiens, UniProt O96017); experiment: Kinase profiling; assay type: binding; conditions: read-out: % Ctrl @ 1000 nM
WEE1 = WEE1 (Homo sapiens, UniProt P30291); experiment: Kinase profiling; assay type: binding; conditions: read-out: % Ctrl @ 1000 nM
BaF3 hCSF1R cell line = experiment: Proliferation of engineered BaF3 hCSF1R cell line (CTG assay); assay type: cell-based; conditions: Mus musculus, 72 h; engineered BaF3 hCSF1R; 3 days; CTG; read-out: IC50
Procedure: Two syngeneic cell lines M-NFS-60 and RAW264.7 and engineered BaF3 hCSFIR cell line were starved and then tested with CBT-102 and other test articles for 3 days in the temperature of 37° C., 5% CO2 and 95% humidity. The cell viability was then detected using CTG assay. The software of GraphPad Prism was used to calculate IC50.
CSF-1 dependent mouse myeloid M-NFS-60 cells were employed as target cells while a CSF-1 independent cell line Raw 264.7 was used as a negative control. In addition to CBT-102, the study also included 3 CSF-1R inhibitors: GW2580, BLZ945 and Pexidartinib.

MAK = MAK (Homo sapiens, UniProt P20794); experiment: Kinase profiling; assay type: binding; conditions: read-out: % Ctrl @ 1000 nM
RIOK2 = RIOK2 (Homo sapiens, UniProt Q9BVS4); experiment: Kinase profiling; assay type: binding; conditions: read-out: % Ctrl @ 1000 nM
STK39 = STK39 (Homo sapiens, UniProt Q9UEW8); experiment: Kinase profiling; assay type: binding; conditions: read-out: % Ctrl @ 1000 nM
KIT (A829P) = KIT (A829P) (Homo sapiens, UniProt P10721, A829P); experiment: Kinase profiling; assay type: binding; conditions: read-out: % Ctrl @ 1000 nM
ASK1 = ASK1 (Homo sapiens, UniProt Q99683); experiment: Kinase profiling; assay type: binding; conditions: read-out: % Ctrl @ 1000 nM
BIKE = BIKE (Homo sapiens, UniProt Q9NSY1); experiment: Kinase profiling; assay type: binding; conditions: read-out: % Ctrl @ 1000 nM
Chain of BIKE (Q9NSY1 whole entry): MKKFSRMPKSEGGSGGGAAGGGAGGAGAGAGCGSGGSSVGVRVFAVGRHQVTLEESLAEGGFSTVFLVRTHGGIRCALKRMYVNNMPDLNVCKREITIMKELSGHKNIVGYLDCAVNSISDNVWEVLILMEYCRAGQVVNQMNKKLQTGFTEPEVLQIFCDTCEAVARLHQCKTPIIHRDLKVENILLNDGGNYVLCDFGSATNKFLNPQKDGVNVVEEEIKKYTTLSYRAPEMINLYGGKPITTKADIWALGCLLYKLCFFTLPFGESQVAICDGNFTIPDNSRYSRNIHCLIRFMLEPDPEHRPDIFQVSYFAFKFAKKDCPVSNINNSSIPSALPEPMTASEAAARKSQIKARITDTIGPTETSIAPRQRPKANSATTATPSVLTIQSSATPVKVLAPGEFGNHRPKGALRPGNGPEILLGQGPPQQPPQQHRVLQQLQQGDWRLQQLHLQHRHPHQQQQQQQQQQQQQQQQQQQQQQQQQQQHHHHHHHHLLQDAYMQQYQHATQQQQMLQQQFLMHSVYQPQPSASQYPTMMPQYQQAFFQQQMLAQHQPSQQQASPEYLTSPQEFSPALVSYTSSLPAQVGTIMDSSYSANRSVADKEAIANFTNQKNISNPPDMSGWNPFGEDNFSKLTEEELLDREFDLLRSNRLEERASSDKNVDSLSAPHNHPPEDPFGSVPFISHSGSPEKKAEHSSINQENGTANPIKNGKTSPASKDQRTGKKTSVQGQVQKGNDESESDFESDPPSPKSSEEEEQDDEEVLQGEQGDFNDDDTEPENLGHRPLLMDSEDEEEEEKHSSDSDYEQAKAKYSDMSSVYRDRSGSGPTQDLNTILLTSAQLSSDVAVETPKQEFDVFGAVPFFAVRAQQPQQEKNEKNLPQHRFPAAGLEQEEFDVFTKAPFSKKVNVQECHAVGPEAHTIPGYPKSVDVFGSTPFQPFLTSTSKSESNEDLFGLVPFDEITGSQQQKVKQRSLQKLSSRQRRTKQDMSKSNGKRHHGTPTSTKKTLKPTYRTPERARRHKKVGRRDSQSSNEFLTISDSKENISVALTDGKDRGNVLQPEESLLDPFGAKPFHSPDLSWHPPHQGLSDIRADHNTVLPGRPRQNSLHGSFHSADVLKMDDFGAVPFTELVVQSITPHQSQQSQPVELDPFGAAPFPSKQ

PLK3 = PLK3 (Homo sapiens, UniProt Q9H4B4); experiment: Kinase profiling; assay type: binding; conditions: read-out: % Ctrl @ 1000 nM
Chain of PLK3 (Q9H4B4 whole entry): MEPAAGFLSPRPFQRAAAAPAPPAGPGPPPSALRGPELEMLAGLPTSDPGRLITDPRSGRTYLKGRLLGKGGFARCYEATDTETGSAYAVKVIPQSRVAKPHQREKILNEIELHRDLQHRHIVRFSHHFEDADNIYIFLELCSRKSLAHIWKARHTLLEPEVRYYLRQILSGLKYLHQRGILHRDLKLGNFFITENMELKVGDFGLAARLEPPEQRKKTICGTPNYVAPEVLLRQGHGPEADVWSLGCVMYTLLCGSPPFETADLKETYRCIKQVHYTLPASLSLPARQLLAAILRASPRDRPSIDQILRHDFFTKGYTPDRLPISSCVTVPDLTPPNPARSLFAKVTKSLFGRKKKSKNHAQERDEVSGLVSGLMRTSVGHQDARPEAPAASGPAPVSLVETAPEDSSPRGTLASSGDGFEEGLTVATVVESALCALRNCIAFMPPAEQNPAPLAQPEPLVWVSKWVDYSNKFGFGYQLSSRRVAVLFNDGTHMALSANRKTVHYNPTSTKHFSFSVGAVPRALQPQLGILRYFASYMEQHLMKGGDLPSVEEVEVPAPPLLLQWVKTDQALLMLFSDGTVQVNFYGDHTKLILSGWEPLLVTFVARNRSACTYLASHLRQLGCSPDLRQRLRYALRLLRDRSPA

BRSK1 = BRSK1 (Homo sapiens, UniProt Q8TDC3); experiment: Kinase profiling; assay type: binding; conditions: read-out: % Ctrl @ 1000 nM
PAK4 = PAK4 (Homo sapiens, UniProt O96013); experiment: Kinase profiling; assay type: binding; conditions: read-out: % Ctrl @ 1000 nM
PCTK3 = PCTK3 (Homo sapiens, UniProt Q07002); experiment: Kinase profiling; assay type: binding; conditions: read-out: % Ctrl @ 1000 nM
MAST1 = biological target: T1, MAST1 (Homo sapiens, UniProt Q9Y2H9); experiment: Kinase profiling; assay type: binding; conditions: read-out: % Ctrl @ 1000 nM
T1 construct: T7 phage fusion (stated for most kinases of the panel only); made in house; host or cells: T7 phage in E. coli (BL21-derived) or HEK-293 cells
T1 sequence (Q9Y2H9 whole entry, the tested form may be a part): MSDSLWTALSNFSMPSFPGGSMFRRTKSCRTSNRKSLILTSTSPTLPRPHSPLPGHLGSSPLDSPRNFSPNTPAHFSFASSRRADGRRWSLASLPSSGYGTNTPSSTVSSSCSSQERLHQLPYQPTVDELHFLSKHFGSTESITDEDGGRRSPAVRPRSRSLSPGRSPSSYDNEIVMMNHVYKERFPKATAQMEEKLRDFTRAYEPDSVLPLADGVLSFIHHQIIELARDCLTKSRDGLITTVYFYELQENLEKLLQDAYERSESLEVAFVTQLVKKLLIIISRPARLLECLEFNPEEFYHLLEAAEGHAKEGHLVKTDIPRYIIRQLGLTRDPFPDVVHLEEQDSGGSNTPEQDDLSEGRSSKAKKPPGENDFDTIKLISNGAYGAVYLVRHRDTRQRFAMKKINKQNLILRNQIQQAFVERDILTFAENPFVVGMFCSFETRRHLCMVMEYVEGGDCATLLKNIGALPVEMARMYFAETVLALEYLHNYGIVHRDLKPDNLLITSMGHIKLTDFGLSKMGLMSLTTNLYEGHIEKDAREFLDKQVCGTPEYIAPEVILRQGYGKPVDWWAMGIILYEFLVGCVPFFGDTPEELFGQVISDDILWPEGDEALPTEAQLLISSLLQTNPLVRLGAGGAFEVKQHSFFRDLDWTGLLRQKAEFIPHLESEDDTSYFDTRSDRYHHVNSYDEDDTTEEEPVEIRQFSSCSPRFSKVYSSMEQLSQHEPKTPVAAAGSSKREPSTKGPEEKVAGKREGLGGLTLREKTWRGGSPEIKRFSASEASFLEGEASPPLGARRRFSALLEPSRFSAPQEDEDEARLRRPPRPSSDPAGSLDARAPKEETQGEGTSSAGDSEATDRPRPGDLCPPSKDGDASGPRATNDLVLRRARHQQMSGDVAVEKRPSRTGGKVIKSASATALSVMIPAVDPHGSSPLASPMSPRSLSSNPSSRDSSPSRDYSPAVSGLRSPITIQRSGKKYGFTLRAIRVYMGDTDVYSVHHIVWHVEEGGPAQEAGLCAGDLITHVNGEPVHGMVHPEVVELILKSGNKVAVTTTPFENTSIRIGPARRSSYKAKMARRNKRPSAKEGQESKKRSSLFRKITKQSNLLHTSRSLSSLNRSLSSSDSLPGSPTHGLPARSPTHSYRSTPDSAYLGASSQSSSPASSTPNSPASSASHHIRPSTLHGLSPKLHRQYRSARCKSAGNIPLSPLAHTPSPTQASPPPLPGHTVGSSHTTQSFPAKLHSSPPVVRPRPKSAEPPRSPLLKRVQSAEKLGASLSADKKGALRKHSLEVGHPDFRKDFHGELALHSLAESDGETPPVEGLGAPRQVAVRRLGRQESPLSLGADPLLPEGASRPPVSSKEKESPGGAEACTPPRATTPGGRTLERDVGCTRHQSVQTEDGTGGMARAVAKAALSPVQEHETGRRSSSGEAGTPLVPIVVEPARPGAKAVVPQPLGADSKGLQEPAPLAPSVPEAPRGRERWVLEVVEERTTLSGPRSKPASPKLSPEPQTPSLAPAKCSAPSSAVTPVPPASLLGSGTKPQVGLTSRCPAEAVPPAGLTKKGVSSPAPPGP

Compound: Cc1cc(Oc2cc(NC(=O)C3CC3)ncn2)ccc1NC(=O)Nc1ccc(Cl)c(C(F)(F)F)c1 [CBT-102]
- remaining activity at 1 µM [1]: 82%
- remaining activity at 1 µM (WNK3): 100%
- remaining activity at 1 µM (CDK7): 25%
- remaining activity at 1 µM [2]: 57%
- remaining activity at 1 µM [3]: 98%
- remaining activity at 1 µM [4]: 2.3%
- remaining activity at 1 µM (ZAK): 5.5%
- remaining activity at 1 µM (PYK2): 93%
- remaining activity at 1 µM (LOK): 0.1%
- remaining activity at 1 µM (RIPK4): 100%
- remaining activity at 1 µM (CDK5): 92%
- remaining activity at 1 µM (CDK4): 100%
- remaining activity at 1 µM (YANK1): 98%
- remaining activity at 1 µM (EGFR): 76%
- remaining activity at 1 µM (SGK): 100%
- remaining activity at 1 µM (PFTAIRE2): 60%
- remaining activity at 1 µM (FES): 68%
- remaining activity at 1 µM (CDC2L2): 22%
- remaining activity at 1 µM (CSNK1A1L): 100%
- remaining activity at 1 µM (FLT3 (R834Q)): 97%
- remaining activity at 1 µM (PIK3CG): 100%
- remaining activity at 1 µM (CHEK2): 100%
- remaining activity at 1 µM (WEE1): 92%
- IC50 (BaF3 hCSF1R cell line): 588 nM
- remaining activity at 1 µM (MAK): 62%
- remaining activity at 1 µM (RIOK2): 92%
- remaining activity at 1 µM (STK39): 100%
- remaining activity at 1 µM (KIT (A829P)): 16%
- remaining activity at 1 µM (ASK1): 91%
- remaining activity at 1 µM (BIKE): 61%
- remaining activity at 1 µM (PLK3): 97%
- remaining activity at 1 µM (BRSK1): 95%
- remaining activity at 1 µM (PAK4): 100%
- remaining activity at 1 µM (PCTK3): 84%
- remaining activity at 1 µM (MAST1): 86%

— patent US20220088016A1, “CANCER TREATMENT USING MULTI-TARGETED KINASE INHIBITOR IN COMBINATION OF PROTEIN KINASE BIOMARKERS” (ZHEJIANG CROWNMAB BIOTECH CO. LTD., priority 2019, published 2022)
